Data taken from US12011619B2, “Low intensity focused ultrasound for treating cancer and metastasis” (priority 2015, dated 2024).

Tests used:
[1] = system: RM1 tumor (murine prostate cancer cell line); assay: RM1 tumor growth in C57Bl/6 mice; format: in vivo, mouse; details: for tumor volume: untreated tumor 1879±98.65 mm^3
Procedure: (§1) This protocol yielded an approximate in situ spatial-peak temporal-average acoustic intensity of 270 W/cm^2, resulting in estimated average intra-tumoral temperature elevation of 3.2° C. Post-treatment, there were no signs of normal tissue toxicity such as alopecia, thermal damage, or skin wounds. […] Control mice were injected with equal volume of the vehicle DMSO, which was used to solubilize 17AAG.
(§2) C57Bl/6 and BalbC nu/nu mice were injected subcutaneously with 1×10^5 RM-1 (murine prostate cancer cell line) and 1×10^6 PC3 (human prostate cancer cell line) cells on the flank, respectively. Approximately 10 days later, the tumor became palpable (3-5 mm in diameter), whereupon LOFU treatment was initiated. […] Palpable tumors were treated with LOFU every 3-4 days for five fractions administered over two weeks. Animals received 17AAG three times a week during this time. Tumor volume measurements were performed twice weekly using Vernier calipers along with simultaneous physical assessment of signs of systemic toxicity (malaise and diarrhea).

[2] = Toxicity / survival of 17AAG dosing in mice (Kaplan Meier, signs of toxicity); format: in vivo
Procedure: as §1
Thus, these dose levels were selected for the current study. The goal was to combine two therapies that are nontoxic, albeit subtherapeutic, and examine whether the combination can be therapeutic. […] To detect the level of ER stress, the expression levels of ER chaperones, ERp44, ERp57, and ERp72 were quantitated among different treatment groups. ERp44 is responsible for oxidative protein folding. ERp57 is an ER resident thiol disulfide oxidoreductase while Erp72 is a disulfide isomerase. All these proteins participate in the protein folding machinery of the ER.
as §2
Mice survival/mortality in different treatment groups was analyzed by Kaplan-Meier as a function of radiation dose using Sigma-Plot and GraphPad Prism (version 4.0 for OS X, San Diego, CA, USA) software.

CHOP transcript = assay: Real Time-PCR analysis of CHOP mRNA in tumors; format: in vivo, mouse; details: RM1 tumors
Description: Although phosphorylated eIF2α decreases the translation of most cellular proteins, including pro-survival and anti-apoptotic proteins, it increases the translation of a transcription factor, ATF4 that is responsible for inducing the transcription of pro-apoptotic genes, such as, CCAAT/enhancer-binding protein homologous protein (CHOP), thereby preparing the cell for programmed cell death in case the misfolded proteins are not repaired and ER stress persists.
Real Time PCR analysis of UPR target genes 24 hr after LOFU treatment the RM1 tumor cells were lysed using RLT buffer mixed with 1% betamercaptoethanol from RNeasy Mini Kit (Qiagen, Valencia, CA, USA).
Qiagen's protocol for the RNeasy Mini Kit with on-column DNA digestion was used to isolate RNA from the tumor lysates. The RNA samples were stored at −80° C., prior to further use. Isolated RNA was subjected to cDNA synthesis using the SuperScript™ First-Strand Synthesis System (Invitrogen, Grand Island, NY, USA). The splicing of XBP1 RNA was detected using the following primer pair 5′-[…]-3′ (SEQ ID NO:19) and 5′-[…]-3′ (SEQ ID NO:20) (Fisher Scientific, Pittsburgh, PA, USA). […]
Primers used for real time PCR included GRP78 5′[…]3′ (SEQ ID NO:21) and 5′[…]3′ (SEQ ID NO:22); EDEM 5′ […] […] Data was analyzed by web based PCR array data analysis software from SA Biosciences.

Which results are given for `C=CCNC1=C2C[C@@H](C)C[C@H](OC)[C@H](O)[C@@H](C)/C=C(\C)[C@H](OC(N)=O)[C@@H](OC)/C=C\C=C(/C)C(=O)NC(=CC1=O)C2=O` [17AAG, 17-N-allylamino-17-demethoxygeldanamycinan]?
tumor volume ([1]; 17AAG 50 mg/kg b.w. i.p. three times a week, C57Bl/6 mice): 964 mm^3; tumor volume ([1]; 17AAG 75 mg/kg b.w. i.p. three times a week, C57Bl/6 mice): 485±24.25 mm^3; interval within which all the animals achieved tumor size 2000 mm^3 ([1]; RM1 tumors, 17AAG 25 mg/kg alone): 26 to 30 days; average estimated tumor growth slower compared to control group ([1]; RM1 tumors, 17AAG 25 mg/kg, C57Bl/6 mice): 9%; death of mice (Kaplan Meier survival analysis) ([2]; 75 mg/kg of body weight, after 21 days of treatment, C57Bl/6 mice): 50%; low dose found to be nontoxic ([2]; Balb/c nude mice): 14 mg/kg; low dose found to be nontoxic ([2]; C57Bl/6 mice): 25 mg/kg; normal tissue toxic effect ([2]; low dose 17AAG 25 mg/kg body weight, C57Bl/6 mice): did not show any normal tissue toxic effect; CHOP transcript levels, induction compared to untreated controls (CHOP transcript): 14.8±2 fold
